In patent publication US10548316B2, “Diarylazole compound and harmful organism control agent” (Nippon Soda Co., Ltd., priority 2015, dated 2020):

Each molecule was assayed on Pseudaletia separata (assay: Efficacy test against Pseudaletia separata (artificial diet)). Conditions: in vivo.
Type: in vivo
Experimental: 5 parts of the compound of the present invention, 93.6 parts of dimethylformamide, and 1.4 parts of polyoxyethylene alkylaryl ether were mixed and dissolved to prepare an emulsion (I) of 5% of the active ingredient.
The insect mortality rate and the control rate were calculated by the following formula. Insect mortality rate (%)=(number of dead insects/number of sample insects)×100 Prevention rate=[1−(Nt)/(Nc)]×100
0.8 g of commercially available artificial diet (Insecta US, manufactured by Nosan Corporation) and 1 μl of emulsion (1) were well mixed and 0.2 g of the resulting mixture was packed in a plastic test container (1.4 ml) per each treatment group to prepare test feeds.
2 second-instar larvae of Pseudaletia separata were inoculated into each treatment group and sealed with a plastic lid. The plastic test containers were placed in a thermostatic chamber with a temperature of 25° C., and the insect mortality rate and the food intake amount were investigated on the fifth day. The test was repeated twice.
Further, a test under the same conditions except that the compound of the present invention was removed from emulsion (I) was conducted as a solvent control group.
CCSc1cc(C(F)(F)F)ccc1-n1cc(-c2ccc(C(F)(F)F)cc2)cn1 [Compound 1-1] showed an insect mortality rate of 100%. CCS(=O)(=O)c1cc(C(F)(F)F)ccc1-n1cc(-c2ccc(C(F)(F)F)cc2)cn1 [Compound 1-2] showed an insect mortality rate of 100%. CCSc1cc(C(F)(F)F)ccc1-n1ncc(-c2ccc(C(F)(F)F)cc2)c1N [Compound 1-4] gave an insect mortality rate of 100%. Molecule CCS(=O)(=O)c1cc(C(F)(F)F)ccc1-n1ncc(-c2ccc(C(F)(F)F)cc2)c1N [Compound 1-5] has an insect mortality rate of 100%. CC[S+]([O-])c1cc(C(F)(F)F)ccc1-n1ncc(-c2ccc(C(F)(F)F)cc2)c1C (stereo not drawn) [Compound 1-9] was tested, and the insect mortality rate was 100%. CCS(=O)(=O)c1cc(C(F)(F)F)ccc1-n1cc(-c2ccc(C(F)(F)F)nc2)cn1 [Compound 1-15] was tested, and the insect mortality rate was 100%. For CCS(=O)(=O)c1cc(C(F)(F)F)ccc1-n1cc(-c2ccc(C(F)(F)F)cc2F)cn1 [Compound 1-16], the insect mortality rate was 100%. CCS(=O)(=O)c1cc(C(F)(F)F)ccc1-n1ncc(-c2ccc(OC(F)(F)F)cc2)c1Br [Compound 1-20] gave an insect mortality rate of 100%. For CCS(=O)(=O)c1cc(C(F)(F)F)ccc1-n1cc(-c2ccc(C(F)(F)C(F)(F)F)cc2)cn1 [Compound 1-22], the insect mortality rate was 100%. With CCS(=O)(=O)c1cc(C(F)(F)F)ccc1-n1ncc(-c2ccc(OC(F)(F)F)cc2)c1F [Compound 1-23] the insect mortality rate was 100%. CCS(=O)(=O)c1cc(C(F)(F)F)ccc1-n1ncc(-c2ccc(C(F)(F)F)nc2)c1N [Compound 1-25] was tested, and the insect mortality rate was 100%. For CCS(=O)(=O)c1cc(C(F)(F)F)ccc1-n1ncc(-c2cc(C(F)(F)F)cc(C(F)(F)F)c2)c1C [Compound 1-26], the insect mortality rate was 100%. CCS(=O)(=O)c1cc(C(F)(F)F)ccc1-n1cc(-c2cc(C(F)(F)F)cc(C(F)(F)F)c2)cn1 [Compound 1-27] showed an insect mortality rate of 100%. Molecule CCS(=O)(=O)c1cc(C(F)(F)F)ccc1-n1ncc(-c2cc(C(F)(F)F)cc(C(F)(F)F)c2)c1N [Compound 1-28] has an insect mortality rate of 100%. CCS(=O)(=O)c1cc(C(F)(F)F)ccc1-n1ncc(-c2cc(C(F)(F)F)cc(C(F)(F)F)c2)c1I [Compound 1-30] was tested, and the insect mortality rate was 100%. For CCS(=O)(=O)c1cc(C(F)(F)F)ccc1-n1ncc(-c2ccc(C(F)(F)C(F)(F)F)cc2)c1N [Compound 1-31], the insect mortality rate was 100%. Work on CCS(=O)(=O)c1cc(C(F)(F)F)ccc1-n1ncc(-c2ccc(SC(F)(F)F)cc2)c1N [Compound 1-32] yielded an insect mortality rate of 100%. Work on CCS(=O)(=O)c1cc(C(F)(F)F)ccc1-n1ncc(-c2cccc(OC(F)(F)F)c2)c1N [Compound 1-34] yielded an insect mortality rate of 100%. In the case of CCS(=O)(=O)c1cc(C(F)(F)F)ccc1-n1ncc(-c2ccc(C(F)(C(F)(F)F)C(F)(F)F)cc2)c1N [Compound 1-35], the insect mortality rate is reported as 100%. CCS(=O)(=O)c1cc(C(F)(F)F)ccc1-n1ncc(-c2ccc(C(F)(F)F)c(Cl)c2)c1N [Compound 1-36] gave an insect mortality rate of 100%. CCS(=O)(=O)c1cc(C(F)(F)F)ccc1-n1ncc(-c2ccc(OC(F)(F)F)c(Cl)c2)c1N [Compound 1-38] gave an insect mortality rate of 100%. CCS(=O)(=O)c1cc(C(F)(F)F)ccc1-n1ncc(-c2ccc(C(F)(F)C(F)(F)F)nc2)c1C [Compound 1-47] gave an insect mortality rate of 100%. For CCS(=O)(=O)c1cc(C(F)(F)F)ccc1-n1cc(-n2cc(C(F)(F)F)cn2)cn1 [Compound 1-50], the insect mortality rate was 100%. For CCS(=O)(=O)c1cc(C(F)(F)F)ccc1-n1cc(-n2cc(C(F)(F)C(F)(F)F)cn2)cn1 [Compound 1-51], the insect mortality rate was 100%. CCS(=O)(=O)c1cc(C(F)(F)F)ccc1-n1ncc(-c2ccc(C(F)(F)C(F)(F)F)nc2)c1C#N [Compound 1-52] showed an insect mortality rate of 100%. In the case of CCS(=O)(=O)c1cc(C(F)(F)F)cnc1-n1ncc(-c2ccc(OC(F)(F)F)cc2)c1N [Compound 2-4], the insect mortality rate is reported as 100%. CCS(=O)(=O)c1cc(C(F)(F)F)cnc1-n1ncc(-c2ccc(C(F)(F)F)nc2)c1C [Compound 2-5] was tested, and the insect mortality rate was 100%.
